Columns and labels:
[1] = biological target: T1, GRK5 (Homo sapiens, UniProt P34947); experiment: Lance Kinase Activity Assay, GRK5; conditions: biochemical Lance kinase activity assay; class symbols A-F; read-out: GRK5 LANCE Assay (IC-50)
T1 construct: purchased Thermo Scientific
How it was run: (§1)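 IC50s from sigmoidal dose-response over 0.0025-10 μM compound, with phosphorylated ULight substrate detected by Eu anti-phospho antibody FRET after EDTA quench.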

[2] = biological target: T2, GRK2 (Homo sapiens, UniProt P25098); experiment: Lance Kinase Activity Assay, GRK2; conditions: biochemical Lance kinase activity assay; class symbols A-F; read-out: GRK2 LANCE Assay (IC-50)
T2 construct: purchased Thermo Scientific
T2 sequence (P25098 1-689): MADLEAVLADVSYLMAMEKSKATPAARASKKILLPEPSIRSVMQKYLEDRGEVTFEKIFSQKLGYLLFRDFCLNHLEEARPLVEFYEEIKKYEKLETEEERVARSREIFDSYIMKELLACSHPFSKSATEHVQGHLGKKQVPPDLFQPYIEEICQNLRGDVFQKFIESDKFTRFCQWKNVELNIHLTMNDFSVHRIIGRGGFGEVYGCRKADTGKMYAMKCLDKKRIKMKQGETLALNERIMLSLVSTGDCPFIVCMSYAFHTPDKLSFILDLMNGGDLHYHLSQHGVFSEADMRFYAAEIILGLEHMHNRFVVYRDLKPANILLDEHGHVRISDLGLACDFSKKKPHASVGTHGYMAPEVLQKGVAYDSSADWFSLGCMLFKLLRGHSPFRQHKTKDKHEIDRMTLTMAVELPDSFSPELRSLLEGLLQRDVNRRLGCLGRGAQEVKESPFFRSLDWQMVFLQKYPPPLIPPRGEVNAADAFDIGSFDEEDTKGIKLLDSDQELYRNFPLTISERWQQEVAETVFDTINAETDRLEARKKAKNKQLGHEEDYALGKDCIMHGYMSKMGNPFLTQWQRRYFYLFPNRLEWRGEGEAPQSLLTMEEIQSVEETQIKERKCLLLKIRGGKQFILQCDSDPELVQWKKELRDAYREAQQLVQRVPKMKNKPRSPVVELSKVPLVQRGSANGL
How it was run: as §1

T1 sequence (P34947 whole entry): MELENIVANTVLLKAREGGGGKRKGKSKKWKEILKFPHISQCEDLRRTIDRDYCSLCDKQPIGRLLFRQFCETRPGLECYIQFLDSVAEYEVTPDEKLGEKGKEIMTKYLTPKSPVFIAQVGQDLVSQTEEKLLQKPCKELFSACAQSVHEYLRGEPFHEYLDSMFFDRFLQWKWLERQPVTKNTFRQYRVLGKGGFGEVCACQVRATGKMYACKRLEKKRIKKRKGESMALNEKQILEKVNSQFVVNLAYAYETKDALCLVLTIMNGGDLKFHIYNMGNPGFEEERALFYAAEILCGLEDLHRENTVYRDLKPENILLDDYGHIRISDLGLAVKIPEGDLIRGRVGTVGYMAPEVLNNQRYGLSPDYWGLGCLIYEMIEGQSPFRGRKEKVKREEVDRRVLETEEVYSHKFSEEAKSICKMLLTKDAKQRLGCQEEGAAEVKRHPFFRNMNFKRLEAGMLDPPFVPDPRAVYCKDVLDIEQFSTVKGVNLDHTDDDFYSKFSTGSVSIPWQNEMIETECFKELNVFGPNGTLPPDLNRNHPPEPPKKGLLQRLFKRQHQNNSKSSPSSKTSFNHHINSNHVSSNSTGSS

Compound | IC50 [1] [nM] | IC50 [2] [nM]
COc1ccc([C@@H](C)NC(=O)/C=C/c2c[nH]c3ncc(Br)cc23)cc1OC [Example 11, (R,E)-3-(5-bromo-1H-pyrrolo[2,3-b]pyridin-3-yl)-N-(1-(3,4-dimethoxyphenyl)ethyl)acrylamide] | ≤ 50 | 1000 to 10000
COc1ccc([C@@H](C)NC(=O)/C(C#N)=C/c2c[nH]c3nccc(-c4cccc(N5CCN(C)CC5)c4)c23)cc1OC [Example 172, (R,E)-2-cyano-N-(1-(3,4-dimethoxyphenyl)ethyl)-3-(4-(3-(4-methylpiperazin-1-yl)phenyl)-1H-pyrrolo[2,3-b]pyridin-3-yl)acrylamide] | ≤ 50 | 1000 to 10000
N#C/C(=C\c1c[nH]c2ncc(Cl)cc12)C(=O)NCc1ccccc1Cl [Example 74, (E)-3-(5-chloro-1H-pyrrolo[2,3-b]pyridin-3-yl)-N-(2-chlorobenzyl)-2-cyanoacrylamide] | 1000 to 10000 | > 10000
N#C/C(=C\c1c[nH]c2ncccc12)C(=O)NCc1ccc(C(F)(F)F)cc1 [Example 59, (E)-2-cyano-3-(1H-pyrrolo[2,3-b]pyridin-3-yl)-N-(4-(trifluoromethyl)benzyl)acrylamide] | 1000 to 10000 | 1000 to 10000
COc1ccc([C@@H](C)NC(=O)/C(C#N)=C/c2c[nH]c3ncc(N4CCN(C)CC4)cc23)cc1OC [Example 85] | ≤ 50 | > 10000
COc1ccc([C@@H](C)NC(=O)/C(C#N)=C/c2c[nH]c3ncc(-c4cccc(NS(C)(=O)=O)c4)cc23)cc1OC [Example 151, (R,E)-2-cyano-N-(1-(3,4-dimethoxyphenyl)ethyl)-3-(5-(3-(methylsulfonamido)phenyl)-1H-pyrrolo[2,3-b]pyridin-3-yl)acrylamide] | ≤ 50 | > 10000
COc1ccc([C@@H](C)NC(=O)/C(C#N)=C/c2c[nH]c3ncc(-c4ccccc4CN4CCCCC4)cc23)cc1OC [Example 129, (R,E)-2-cyano-N-(1-(3,4-dimethoxyphenyl)ethyl)-3-(5-(2-(piperidin-1-ylmethyl)phenyl)-1H-pyrrolo[2,3-b]pyridin-3-yl)acrylamide] | 1000 to 10000 | > 10000
COc1ccc([C@@H](C)NC(=O)/C=C/c2c[nH]c3nccc(-c4ccc(OCCN(C)C)cc4)c23)cc1OC [Example 230, (R,E)-N-(1-(3,4-dimethoxyphenyl)ethyl)-3-(4-(4-(2-(dimethylamino)ethoxy)phenyl)-1H-pyrrolo[2,3-b]pyridin-3-yl)acrylamide] | ≤ 50 | 1000 to 10000
C[C@@H](NC(=O)/C(C#N)=C/c1c[nH]c2ncc(Cl)cc12)c1ccc(F)cc1 [Example 76, (R,E)-3-(5-chloro-1H-pyrrolo[2,3-b]pyridin-3-yl)-2-cyano-N-(1-(4-fluorophenyl)ethyl)acrylamide] | 100 to 500 | 500 to 1000
COc1ccc([C@@H](C)NC(=O)/C(C#N)=C/c2c[nH]c3ncc(-c4cnn(CC(C)C)c4)cc23)cc1OC [Example 161, (R,E)-2-cyano-N-(1-(3,4-dimethoxyphenyl)ethyl)-3-(5-(1-isobutyl-1H-pyrazol-4-yl)-1H-pyrrolo[2,3-b]pyridin-3-yl)acrylamide] | ≤ 50 | > 10000
COc1ccc([C@@H](C)NC(=O)/C(C#N)=C/c2c[nH]c3ncc(Nc4ccccc4)cc23)cc1OC [Example 88, (R,E)-2-cyano-N-(1-(3,4-dimethoxyphenyl)ethyl)-3-(5-(phenylamino)-1H-pyrrolo[2,3-b]pyridin-3-yl)acrylamide] | ≤ 50 | 1000 to 10000
COc1ccc(CNC(=O)/C(C#N)=C/c2c[nH]c3ncccc23)cc1S(N)(=O)=O [Example 36, (E)-2-cyano-N-(4-methoxy-3-sulfamoylbenzyl)-3-(1H-pyrrolo[2,3-b]pyridin-3-yl)acrylamide] | 100 to 500 | 1000 to 10000

Source: patent publication US20240294522A1 (Lead Discovery Center GmbH, priority 2021, published 2024)
